Assay [1] relates to 3T3-L1 precursor adipocytes. The assay can be described thus: Uptake of glucose by adipocytes ([3H]-2-deoxy-glucose uptake). The class given is cell-based. To be noted: Mus musculus, 100 nM compound, 4 to 5 days culture, 100 nM insulin stimulation, relative to 10 μM rosiglitazone taken as 100%, read-out: Amount of glucose uptake (%). The method, then: (§1) Test for Uptake of Glucose By Adipocytes and Test for Triglyceride Accumulation in Adipocytes
According to the method of Mukherjee et al. (Mol. Endocrinol, 14, 1425–1433, 2000), a glucose uptake experiment was performed by using cultured cells. 3T3-L1 precursor adipocytes were cultured for 4 to 5 days in the presence of a test compound, and then stimulated with 100 nM insulin, and then the amount of [^3H]-2-deoxy-glucose (2DG) uptake by the cells was measured. The amount of glucose uptake provided after the treatment with 100 nM of each compound was measured, and represented as a relative value based on the amount of glucose uptake provided after the treatment with 10 μM rosiglitazone, which was taken as 100%.

For the next assay, the system named is Zucker rats. The assay can be described thus: Liver triglyceride contents in Zucker rats. The class given is in vivo. The settings on record: Rattus norvegicus, 336 h, read-out: Triglyceride reducing rate (%); for inhibition in vivo at 1 mg/kg: 1 mg/kg once a day for 2 weeks. As to the method: Measurement of Liver Triglyceride Contents in Zucker Rats
To Zucker rats, a vehicle (0.5% MC), a compound of the present invention or fenofibrate (Sigma) was administered once a day for 2 weeks. The livers were isolated on the next day of the final administration, and amounts of triglyceride in the livers were determined. Triglyceride was extracted by adding 5 ml of a mixture of hexane and isopropanol (2:1, V/V) to 100 mg of liver, homogenizing the liver using Polytron homogenizer, then sufficiently stirring and centrifuging the homogenate at 2000 g for 10 minutes at room temperature. The amount of triglyceride in the solution layer was measured.

In assay [2] the test system is hamsters fed with high cholesterol diet. Nature of the assay: Total plasma cholesterol and non-HDL cholesterol reducing action in hamster fed high cholesterol diet. In kind it is in vivo. The settings on record: Mesocricetus auratus, 192 h, hamsters on high cholesterol diet, 10 mg/kg oral once a day for one week, plasma on 8th day. As to the method:
Test for Measuring Total Plasma Cholesterol Reducing Action and Non-HDL Cholesterol (VLDL Cholesterol+LDL Cholesterol) Reducing Action in Hamster
A test compound (10 mg/kg) was administered once a day for one week to hamsters fed with high cholesterol diet (CE-2 (Clea Japan)+1% cholesterol+10% coconut oil) for five days. The plasma cholesterol level and the plasma HDL cholesterol level were measured immediately before the start of the administration of the test sample or vehicle on the 1st day, and the hamsters were divided into groups so that the groups gave no significant value of initial levels of the both measurements. Each of the test samples was dissolved in a 0.5% methylcellulose (MC) solution and orally administered. A 0.5% methylcellulose (MC) solution was orally administered to the hamsters as a vehicle control group. A blood sample was collected on the 8th day, and the plasma cholesterol level and the plasma HDL cholesterol level were measured. The total cholesterol reducing rate was obtained by using the following equation. [formula]
Further, non-HDL cholesterol level (LDL cholesterol level+VLDL cholesterol level) was calculated as (Total cholesterol level−HDL cholesterol level), and the reducing rate thereof was calculated by using the following equation. [formula]

The test system of assay [3] is 3T3-L1 precursor adipocytes. The assay can be described thus: Triglyceride accumulation in adipocytes. In kind it is cell-based. To be noted: Mus musculus, 100 nM compound, 4 to 5 days culture, relative to 10 μM rosiglitazone taken as 100%, read-out: Amount of accumulated triglyceride (%). As to the method:
as §1
Further, 3T3-L1 precursor adipocytes were cultured for 4 to 5 days in the presence of a test compound, and then the amount of triglyceride in the cells was measured according to the method of Shibata T et al. (Eur. J. Pharmacol., 364 (2–3), 211–219, 1999). The amount of accumulated triglyceride provided after the treatment with 100 nM of each compound was measured, and represented as a relative value based on the amount of accumulated triglyceride provided after the treatment with 10 μM rosiglitazone, which was taken as 100%.

In a further assay the test system is db/db mice. Nature of the assay: Hypoglycemic action and triglyceride-decreasing action in db/db mice. The settings on record: Mus musculus, 360 h; for inhibition in vivo at 1 mg/kg: 1 mg/kg oral once a day for 2 weeks; for inhibition in vivo at 3 mg/kg: 3 mg/kg oral once a day for 2 weeks. In kind it is in vivo. As to the method:
Test for Measuring Hypoglycemic Action and Triglyceride-Decreasing Action in db/db Mice
Each of test compounds was administered once a day for 2 weeks to db/db mice genetically presenting pathological conditions of obesity, hyperglycemia, and hyperlipidemia. Blood was collected from the mice immediately before the start of administration of a test sample or a vehicle on the first day. Plasma glucose levels and triglyceride levels were measured, and the mice were divided into groups so that average glucose levels and triglyceride levels gave no significant value among the groups. All the test samples were suspended in a 0.5% methylcellulose (MC) solution and orally administered. For a vehicle-administered control group, a 0.5% MC solution was orally administered. Blood samples were collected from the mice on the 15th day, and plasma glucose levels and triglyceride levels were measured. A hypoglycemic rate and triglyceride-reducing rate were calculated by using the following equations.

The mark [4] stands for this setting: non-HDL = total cholesterol - HDL cholesterol, read-out: Non-HDL cholesterol reducing rate (%).
[5] abbreviates: read-out: Total cholesterol reducing rate (%).
[6] abbreviates: plasma glucose on 15th day vs vehicle, read-out: Hypoglycemic rate (%).
[7] abbreviates: plasma triglyceride on 15th day vs vehicle, read-out: Triglyceride reducing rate (%).

Data on twelve molecules can be found in US7015345B2, “Propionic acid derivatives” (Asahi Kasei Pharma Corporation, priority 2002, dated 2006).

Each structure is given as a SMILES string. Where two headings read alike, the source gives them in different places.

For `CCCCCCCN(CCOc1ccc(CC(OCC)C(=O)O)cc1)C(=O)OC(C)C` (stereo not drawn) [Example 66, 2-ethoxy-3-{4-[2-(N-heptyl-N-isopropyloxycarbonylamino)ethoxy]phenyl}propionic acid], the results for the Emax at 0.1 µM in assay [1] and in assay [3] were 95% and 80%, respectively. The inhibition in vivo at 1 mg/kg with Zucker rats turned out to be 44%; in the assay with db/db mice (setting [6]) it was 32%; in the assay on db/db mice (setting [7]), 57%. For the same molecule, the inhibition in vivo at 10 mg/kg in assay [2] (setting [4]) amounted to 42%; in assay [2] (setting [5]), 40%.
`CCOC(Cc1ccc(OCCN(CCOc2ccccc2)C(=O)OC(C)C)cc1)C(=O)O` (stereo not drawn) [Example 92, 2-ethoxy-3-(4-{2-[N-isopropoxycarbonyl-N-(2-phenoxyethyl)amino]ethoxy}phenyl)propionic acid]: the Emax at 0.1 µM in assay [1] was 90%; in assay [3] it was 92%. For the same molecule, the inhibition in vivo at 1 mg/kg in the assay with Zucker rats is 2%. Moreover, the results for the inhibition in vivo at 10 mg/kg in assay [2] (setting [4]) and in assay [2] (setting [5]) were 10% and 8%, respectively. In addition, the inhibition in vivo at 3 mg/kg in the assay with db/db mice (setting [6]) amounted to 4%; with db/db mice (setting [7]), 12%.
As for `CCCCOCCN(CCOc1ccc(CC(OC(C)C)C(=O)O)cc1)C(=O)OCC(C)C` (stereo not drawn) [Example 132, 3-(4-{2-[N-(2-butoxyethyl)-N-isobutoxycarbonylamino]ethoxy}phenyl)-2-isopropoxypropionic acid], the Emax at 0.1 µM in assay [1] came out at 96%; in assay [3], 97%. The inhibition in vivo at 1 mg/kg in the assay on Zucker rats is 39%; with db/db mice (setting [6]), 7%; in the assay with db/db mice (setting [7]), 14%. Further, the inhibition in vivo at 10 mg/kg in assay [2] (setting [4]) was determined as 20%; in assay [2] (setting [5]), 18%.
Take `CCCCOCCN(CCOc1ccc(CC(OCC)C(=O)O)cc1)C(=O)OC(C)C` (stereo not drawn) [Example 122, 3-(4-{2-[N-(2-butoxyethyl)-N-isopropoxycarbonylamino]ethoxy}phenyl)-2-ethoxypropionic acid]: the results for the Emax at 0.1 µM in assay [1] and in assay [3] were 92% and 90%, respectively. For the same molecule, in the assay on Zucker rats, the inhibition in vivo at 1 mg/kg was 2%. For the same molecule, the inhibition in vivo at 10 mg/kg in assay [2] (setting [4]) is 9%; in assay [2] (setting [5]) it was 10%. Besides, the inhibition in vivo at 3 mg/kg was 14% in the assay with db/db mice (setting [6]) and 21% with db/db mice (setting [7]).
As to `CCCCCCCN(CCOc1ccc(CC(OCC)C(=O)O)cc1)C(=O)OC` (stereo not drawn) [Example 56, 2-ethoxy-3-{4-[2-(N-heptyl-N-methoxycarbonylamino)ethoxy]phenyl}propionic acid], the figures for the Emax at 0.1 µM in assay [1] and in assay [3] were 90% and 85%, respectively. Moreover, the results for the inhibition in vivo at 1 mg/kg with Zucker rats, with db/db mice (setting [6]) and in the assay on db/db mice (setting [7]) were 42%, 26% and 49%, respectively. Also, the inhibition in vivo at 10 mg/kg came out at 40% in assay [2] (setting [4]) and 39% in assay [2] (setting [5]).
Regarding `CCCCCCCN(CCOc1ccc(CC(OC(C)C)C(=O)O)cc1)C(=O)OC` (stereo not drawn) [Example 118, 3-{4-[2-(N-heptyl-N-methoxycarbonylamino)ethoxy]phenyl}-2-isopropoxypropionic acid], the figures for the Emax at 0.1 µM in assay [1] and in assay [3] were 60% and 55%, respectively. For the same molecule, the inhibition in vivo at 1 mg/kg came out at 47% in the assay on Zucker rats, 42% in the assay with db/db mice (setting [6]) and 51% in the assay on db/db mice (setting [7]). The inhibition in vivo at 10 mg/kg was 50% in assay [2] (setting [4]) and 45% in assay [2] (setting [5]).
Take `CCCCCCCN(CCOc1ccc(CC(OCC)C(=O)O)cc1)C(=O)OCc1ccccc1` (stereo not drawn) [Example 57, 3-{4-[2-(N-benzyloxycarbonyl-N-heptylamino)ethoxy]phenyl}-2-ethoxypropionic acid]: the Emax at 0.1 µM turned out to be 80% in assay [1] and 75% in assay [3]. For the same molecule, the inhibition in vivo at 1 mg/kg in the assay with Zucker rats came out at 41%. Further, the inhibition in vivo at 10 mg/kg in assay [2] (setting [4]) was found to be 43%; in assay [2] (setting [5]) it was 41%. Moreover, the inhibition in vivo at 3 mg/kg in the assay on db/db mice (setting [6]) came to 35%; with db/db mice (setting [7]), 46%.
Regarding `CCCCCCCN(CCOc1ccc(CC(OC(C)C)C(=O)O)cc1)C(=O)OC(C)C` (stereo not drawn) [Example 125, 3-{4-[2-(N-heptyl-N-isopropoxycarbonylamino)ethoxy]phenyl}-2-isopropoxypropionic acid], the values for the Emax at 0.1 µM in assay [1] and in assay [3] were 97% and 98%, respectively. The inhibition in vivo at 1 mg/kg in the assay on Zucker rats came out at 36%; in the assay on db/db mice (setting [6]) it was 42%; in the assay with db/db mice (setting [7]) it was 64%. Moreover, the inhibition in vivo at 10 mg/kg in assay [2] (setting [4]) is 48%; in assay [2] (setting [5]), 45%.
On to `C=CCCOC(=O)N(CCCCCCC)CCOc1ccc(CC(OCC)C(=O)O)cc1` (stereo not drawn) [Example 73, 3-(4-{2-[N-(3-butenyloxycarbonyl)-N-heptylamino]ethoxy}phenyl)-2-ethoxypropionic acid], for which the Emax at 0.1 µM in assay [1] came to 99%; in assay [3], 96%. The inhibition in vivo at 1 mg/kg in the assay with Zucker rats is 34%. The inhibition in vivo at 10 mg/kg in assay [2] (setting [4]) and in assay [2] (setting [5]) was 45% in each case. In addition, the inhibition in vivo at 3 mg/kg with db/db mice (setting [6]) stood at 30%; with db/db mice (setting [7]), 43%.
Consider `CCCCCCCN(CCOc1ccc(CC(OCC)C(=O)O)cc1)C(=O)OCC` (stereo not drawn) [Example 75, 2-ethoxy-3-{4-[2-(N-ethoxycarbonyl-N-heptylamino)ethoxy]phenyl}propionic acid], for which the Emax at 0.1 µM in assay [1] and in assay [3] was 98% in each case. The inhibition in vivo at 1 mg/kg with Zucker rats came to 32%. Also, the inhibition in vivo at 10 mg/kg in assay [2] (setting [4]) is 46%; in assay [2] (setting [5]) it was 48%. Also, the inhibition in vivo at 3 mg/kg in the assay with db/db mice (setting [6]) was found to be 38%; in the assay with db/db mice (setting [7]), 32%.
Take `CCCCCCCN(CCOc1ccc(CC(OCC)C(=O)OCC)cc1)C(=O)OCC(F)(F)F` (stereo not drawn) [Example 96, 2-ethoxy-3-(4-{2-[N-heptyl-N-(2,2,2-trifluoroethoxycarbonyl)amino]ethoxy}phenyl)propionic acid ethyl ester]: the Emax at 0.1 µM in assay [1] turned out to be 85%; in assay [3] it was 80%. Also, the inhibition in vivo at 1 mg/kg in the assay with Zucker rats amounted to 39%. The inhibition in vivo at 10 mg/kg in assay [2] (setting [4]) was found to be 23%; in assay [2] (setting [5]), 24%. Moreover, the inhibition in vivo at 3 mg/kg turned out to be 38% in the assay on db/db mice (setting [6]) and 31% in the assay with db/db mice (setting [7]).
`CC(C)OC(=O)C(C)(C)Oc1ccc(C(=O)c2ccc(Cl)cc2)cc1` [Fenofibrate, fenofibrate, reference compound]: the inhibition in vivo at 100 mg/kg in the assay with Zucker rats (100 mg/kg once a day for 2 weeks) turned out to be 22%.
